According to ChEMBL document CHEMBL1149499, “Synthesis and agonist activity of cyclic ADP-ribose analogues with substitution of the northern ribose by ether or alkane chains” (J Med Chem, 2006):
Active and inactive are the calls of the source. The rule behind the calls is not given here.

What was measured:
Assay type in all cases: functional, cell-based
Settings in all cases: Homo sapiens
Jurkat [1] = assay: Antagonist activity against cADPR/RyR assessed as inhibition of anti CD3-stimulated calcium influx in intact jurkat T cells at 500 uM
Jurkat [2] = assay: Agonist activity against cADPR/RyR assessed as induction of calcium influx in intact jurkat T cells at 500 uM
Jurkat [3] = assay: Induction of calcium flux in single jurkat T cell by confocal calcium imaging experiment at 500 uM

Row | Structure (SMILES) | Activity (Jurkat [1]) | Activity (Jurkat [2]) | Activity (Jurkat [3])
1 | N=c1c2ncn3c2ncn1CCCCOP(=O)(O)OP(=O)(O)OC[C@H]1O[C@@H]3[C@H](O)[C@@H]1O | inactive | Active | –
2 | N=c1c2ncn3c2ncn1CCOCCOP(=O)(O)OP(=O)(O)OC[C@H]1O[C@@H]3[C@H](O)[C@@H]1O | inactive | Active | Active
3 | N=c1c2ncn3c2ncn1CCCCCOP(=O)(O)OP(=O)(O)OC[C@H]1O[C@@H]3[C@H](O)[C@@H]1O | inactive | Active | –
